According to article PMC9220111, “Pharmacokinetics and Pharmacodynamics of Colistin Methanesulfonate in Healthy Chinese Subjects after Multi-Dose Regimen” (Antibiotics, 2022):
“Also recorded” adds a separate entry of the source. Read-outs that look alike come from different tables or passages of the source. Positions of bridges follow the written chain, without caps; N, C: chain ends. Non-standard residues stand in square brackets, D forms with d. Residues, ends and D or L forms follow the SMILES beside them. *: point of attachment. X1 = CC[C@H](C)CCCCC(=O)*; Dab = NCC[C@H](N)C(=O)O

Columns and labels:
[1] = Early renal damage indicators, serum creatinine and urea; assay type: in vivo, human; details: Day8; individual subjects S01–S12, one line each; normal range 0.7-1.8 mg/L
Method: (§1) During the study, close observations and detailed records were kept in all subjects for clinical adverse events (AE), abnormal results of clinical laboratory tests and other specific examinations. The early renal damage indicators, including serum β2-microglobulin, serum Cysteine […] inhibitor C (Cystatin C), urine neutrophils gelatinase-associated lipocalin (NGAL) and urine β2-microglobulin, were tested at day 4 and day 8 after the start of drug administration.

[2] = human, in vivo; cited from earlier work
[3] = Safety evaluation: clinical adverse events and laboratory tests; assay type: in vivo, human
Method: as §1

[4] = human, in vivo, iv
Method: (§2) A single-center, open-label, multi-dose trial design was conducted following multiple intravenous administrations of CMS in 12 healthy Chinese subjects.
(§3) The dose regimen was 2.5 mg/kg CBA for 7 consecutive days with 12 h between each administration, except for one dose on day 1 (first dose) and day 7 (last dose). Each intravenous infusion time was 90 ± 10 min.
(§4) The blood samples were collected on day 1 and day 7 at pre-dose during intravenous infusion (30 min and 60 min after the start of intravenous infusion), immediately after the end of intravenous infusion (1.5 h) and at 1.75 h, 2 h, 2.5 h, 3.5 h, 5 h, 7 h, 9 h, 12 h, 16 h and 24 h after the start of intravenous infusion. From day 2 to day 6, blood samples were collected before and immediately after the end of infusion of the first dose. All blood samples were collected and transferred into an EDTA-K2 tube, and were then centrifuged at 3500 rpm for 10 min at 4 °C. Within 1 h after blood collection, the plasma samples were stored at −70 ± 10 °C until analysis [10].
(§5) The concentrations of CMS and colistin in plasma and urine samples were analyzed with a verified ultra-performance liquid chromatography tandem mass spectrometry method [30]. To determine the free colistin concentration, the matrix was alkalized with 5% ammonia at 0–4 °C, and CMS concentrations were obtained with acid hydrolysis, and then loaded onto the Oasis weak cation exchange 96-well plate (WCX, Waters, Milford, MA, USA). The standard curves of colistin A/colistin B for the plasma and urine samples ranged from 0.0446/0.0332–4.46/3.32 μg/mL to 0.0223/0.0166–2.23/1.66 μg/mL [10], respectively. The concentrations of colistin and CMS were determined as the major components of colistin A+ colistin B and colistin A methanesulfonate (CMS A) + colistin B methanesulfonate (CMS B), respectively.
(§6) The PK parameters of CMS and colistin in plasma were calculated by the non-compartment model [23] using the WinNonlin8.0 software (Pharsight, Mountain View, CA, USA). […] The urine excretion rate was calculated according to the correction of renal clearance (CLr). The PK parameters in urine samples calculated included interval urinary excretion rate, cumulative urinary excretion rate and CLr.
(§7) The PK parameters were expressed as average ± standard deviation (mean ± SD). The main PK parameters after the first and last doses were evaluated by paired t test (SAS 9.4, SAS Institute, Inc., Cary, NC, USA). p value ≤ 0.05 was considered as significant.

[5] = Plasma pharmacokinetics of CMS and colistin after multi-dose intravenous infusions of CMS; details: for CLr: renal clearance; for Cmax: healthy Chinese subjects, UPLC-MS/MS; for AI (accumulation index): Day 7, after 7 consecutive days of CMS 2.5 mg/kg CBA i.v. q12 h; for clearance: CLt
Method: as §2, §3, §4, §5, §6, §7

[6] = system: extremely drug-resistant (XDR) P. aeruginosa; details: cited from earlier work
[7] = value used to calculate fAUC0–24; cited from earlier work
Method: The target values of fAUC0–24/MIC used in this study were from published PK/PD study reports of colistin, conducted on animal infection models. […] The free colistin fraction f used was 50% [6, 31]. AUC0–24,ss values from this study were calculated as 2 times AUC0–12 on day 7 based on the twi ...

[8] = cited from earlier work
Method: CMS in clinic has generally been expressed as the internationally accepted term of c ... || A new CMS formula was produced with a 4:1 ratio of CMS A:CMS B, and met the requirements of the European Pharmacopoeia EP9.2 [9]. […] The Cavg,ss (95% CI) was 0.92 (0.85, 0.99) μg/mL after 7 days of 2.5 mg/kg CBA every 12 h (q12 h) administration of this new formulation, as simulated by the obtained single-dose PK parameters. The purpose of this study was to investigate the PK characteristics of CMS and colistin in plasma and urine following multip ... || This study evaluated the applicability of CMS at the recommended dosing regimen (2.5 mg/kg CBA q12 h) for the first time in Chinese subjects.

[9] = Urine excretion of CMS and colistin after multi-dose intravenous infusions of CMS; assay type: in vivo; details: human, 12 subjects, mean ± SD, read-out: Cumulative urine excretion rate within 0–24 h
Method: Urine samples (700 μL) were mixed with equal volume of 1% bovine serum albumin (BSA) prior and stored at −70 ± 10 °C until analysis.

[10] = 12 healthy Chinese subjects, CMS 2.5 mg/kg CBA i.v. q12 h 7 days
[11] = individual healthy Chinese subjects S01–S12, one line each, CMS 2.5 mg/kg CBA i.v. q12 h 7 days
[12] = Day 1 (first dose), CMS 2.5 mg/kg CBA i.v., mean ± SD, n = 12, SD
[13] = Day 1 (first dose), CMS 2.5 mg/kg CBA i.v., plasma, mean ± SD, n = 12, SD
[14] = Day 1 (first dose), CMS 2.5 mg/kg CBA i.v., mean ± SD, n = 12, day 1 urine stored without BSA, for reference only, SD
[15] = Day 7 (last dose), CMS 2.5 mg/kg CBA i.v. q12 h 7 days, mean ± SD, n = 12, SD
[16] = Day 7 (last dose, steady state), CMS 2.5 mg/kg CBA i.v. q12 h 7 days, plasma, mean ± SD, n = 12, SD
[17] = 33 patients with XDR P. aeruginosa UTIs
[18] = human, plasma, iv, 2.5 mg/kg CBA, SD
[19] = earlier CMS formula, CMS A:CMS B 1:2, healthy Chinese subjects

## Colistin methanesulfonate [CMS]
[1]
  serum β2-microglobulin: 1.72 mg/L
[2]
  incidence of nephrotoxicity: 26.0–74.1%
[3]; [10]
  Deaths or serious adverse events: No serious adverse events were observed; also recorded: No deaths or other serious adverse events occurred
  Vital signs, QTc and electrocardiogram: No abnormal vital signs nor QTc prolongations or other clinically significant electrocardiogram abnormalities were found
[3]; 12 healthy Chinese subjects, CMS 2.5 mg/kg CBA i.v. q12 h 7 days, no increase in urine β2 microglobulin and urine NGAL
  Nephrotoxicity: no nephrotoxicity was observed; also recorded: No obvious nephrotoxicity occurred
[3]; 12 healthy Chinese subjects, after multi-dose i.v. infusions of CMS, all mild and transient
  Subjects with adverse effects: Eleven out of the twelve
[3]; [11]
  Abnormality in Laboratory Test: Normal; also recorded: Decreased absolute value of neutrophils (2 days)
  Clinical Adverse Event (Duration): Facial itchiness (4 days and 12 h) Tongue numbness (5 days and 2 h) Dizziness (2 days and 16 h); also recorded: Facial itchiness (2 days and 3 h) Tongue numbness (5 days and 8 h); also recorded: Tongue numbness (6 days and 12 h) Lip numbness (5 days and 10 h) Sore throat (1 day and 23 h) Erythema (6 days and 13 h); also recorded: Normal; also recorded: Tongue numbness (5 days and 20 h) Dizziness (4 h); also recorded: Tongue numbness (5 days and 14 h); also recorded: Tongue numbness (5 days and 8 h) Dizziness (2 days and 13 h) Headache (1 day and 19 h) Lip numbness (1 day and 10 h) Skin itchiness (1 day and 20 h); also recorded: Tongue numbness (5 days and 20 h) Lip numbness (2 days and 15 h) Pharyngeal discomfort (5 days and 16 h) Facial numbness (4 days and 16 h)
[4]
  T1/2, median: 1.72 h
  half-life: 1.52 h
[5]; [12]
  CLt: 1.3 ± 0.33 mL/min/kg
  Vd: 0.15 ± 0.03 L/kg
  fm (fraction of CMS converted to colistin in the body): 0.27 ± 0.12
[5]; [13]
  AUC0–12: 53730 ± 9770 ng·h/mL
  AUC0–24: 53960 ± 9930 ng·h/mL
[5]; [14]
  CLr: 1 ± 0.17 mL/min/kg
[5]; Day 1 (first dose), CMS 2.5 mg/kg CBA i.v. infusion 90 min, plasma, non-compartment model, mean ± SD, n = 12, SD
  Cmax: 22200 ± 4380 ng/mL
[5]; [15]
  fm (fraction of CMS converted to colistin in the body): 0.45 ± 0.15
  CLr: 0.67 ± 0.33 mL/min/kg
[5]; Day 7 (last dose, steady state), CMS 2.5 mg/kg CBA i.v. q12 h 7 days, mean ± SD, n = 12, SD
  CLt: 1.3 ± 0.33 mL/min/kg
[5]; [16]
  Cavg,ss: 4410 ± 754 ng/mL
  Cmin,ss: 133 ± 141 ng/mL
[5]; mean ± SD, n = 12, SD
  AI (accumulation index): 1.07 ± 0.10

## CC[C@H](C)CCCCC(=O)N[C@@H](CCN)C(=O)N[C@H](C(=O)N[C@@H](CCN)C(=O)N[C@H]1CCNC(=O)[C@H]([C@@H](C)O)NC(=O)[C@H](CCN)NC(=O)[C@H](CCN)NC(=O)[C@H](CC(C)C)NC(=O)[C@@H](CC(C)C)NC(=O)[C@H](CCN)NC1=O)[C@@H](C)O [colistin] (X1-[Dab]T[Dab][Dab][Dab][dL]L[Dab][Dab]T; lactam 4-C)
[6]; [17]
  AUC0–24/MIC: 60.5 ± 56.4
  fAUC0–24/MIC: 30.2 ± 28.2
[6]; patients with XDR P. aeruginosa UTIs
  Cavg,ss: 1.19 (0.21–5.20) μg/mL
[7]
  free colistin fraction f: 50%
[5]; [14]
  CLr: 0.013 ± 0.0067 mL/min/kg
[5]; [15]
  CLr: 0.025 ± 0.012 mL/min/kg
[5]; [16]
  Cavg,ss: 1270 ± 270 ng/mL
  Cmin,ss: 670 ± 220 ng/mL
[5]; mean ± SD, n = 12, SD
  AI (accumulation index): 1.32 ± 0.06
[5]; human, plasma, iv, 2.5 mg/kg CBA, AUC0–12 (AUC0–12,ss), Day 7 (last dose, steady state), CMS 2.5 mg/kg CBA i.v. q12 h 7 days, plasma, mean ± SD, n = 12, SD
  AUC(0-t): 15300 ± 3290 ng·h/mL
[5]; human, plasma, iv, 2.5 mg/kg CBA, AUC0–12, Day 1 (first dose), CMS 2.5 mg/kg CBA i.v., plasma, mean ± SD, n = 12, SD
  AUC(0-t): 9800 ± 1710 ng·h/mL
[5]; human, plasma, iv, 2.5 mg/kg CBA, AUC0–24, Day 1 (first dose), CMS 2.5 mg/kg CBA i.v., plasma, mean ± SD, n = 12, SD
  AUC(0-t): 12600 ± 2550 ng·h/mL
[5]; human, plasma, iv, 2.5 mg/kg CBA, Day 1 (first dose), CMS 2.5 mg/kg CBA i.v., mean ± SD, n = 12, SD
  clearance: 3.5 mL/min/kg
[5]; human, plasma, iv, 2.5 mg/kg CBA, Day 7 (last dose, steady state), CMS 2.5 mg/kg CBA i.v. q12 h 7 days, mean ± SD, n = 12, SD
  clearance: 3 mL/min/kg
[5]; human, plasma, iv, 2.5 mg/kg CBA, Cmax, Day 1 (first dose), CMS 2.5 mg/kg CBA i.v. infusion 90 min, plasma, non-compartment model, mean ± SD, n = 12, SD
  Cmax: 1170 ± 180 ng/mL
[5]; human, plasma, iv, 2.5 mg/kg CBA, Cmax, Day 7 (last dose, steady state), CMS 2.5 mg/kg CBA i.v. q12 h 7 days, plasma, mean ± SD, n = 12, SD
  Cmax: 1790 ± 370 ng/mL
[5]; human, plasma, iv, 2.5 mg/kg CBA, T1/2, Day 1 (first dose), CMS 2.5 mg/kg CBA i.v., plasma, mean ± SD, n = 12, SD
  half-life: 5.15 ± 0.95 h
[5]; human, plasma, iv, 2.5 mg/kg CBA, T1/2, Day 7 (last dose), CMS 2.5 mg/kg CBA i.v. q12 h 7 days, plasma, mean ± SD, n = 12, SD
  half-life: 5.9 ± 0.58 h
[5]; human, plasma, iv, 2.5 mg/kg CBA, T1/2, median, after the first dose, median, n = 12
  half-life: 4.97 h
[5]; human, plasma, iv, 2.5 mg/kg CBA, T1/2, median, after the last dose, median, n = 12
  half-life: 6.1 h
[5]; human, plasma, iv, 2.5 mg/kg CBA, Day 1 (first dose), CMS 2.5 mg/kg CBA i.v., plasma, mean ± SD, n = 12, SD
  Tmax: 4.42 ± 0.9 h
[5]; human, plasma, iv, 2.5 mg/kg CBA, Day 7 (last dose), CMS 2.5 mg/kg CBA i.v. q12 h 7 days, plasma, mean ± SD, n = 12, SD
  Tmax: 3.38 ± 0.68 h
[5]; human, plasma, iv, 2.5 mg/kg CBA, median, after the first dose, median, n = 12
  Tmax: 5 h
[5]; human, plasma, iv, 2.5 mg/kg CBA, median, after the last dose, median, n = 12
  Tmax: 3.5 h
[5]; human, plasma, iv, 2.5 mg/kg CBA, Vd, Day 1 (first dose), CMS 2.5 mg/kg CBA i.v., mean ± SD, n = 12, SD
  Vd: 1.52 ± 0.22 L/kg
[5]; human, plasma, iv, 2.5 mg/kg CBA, Vd, Day 7 (last dose, steady state), CMS 2.5 mg/kg CBA i.v. q12 h 7 days, mean ± SD, n = 12, SD
  Vd: 1.66 ± 0.25 L/kg
[5]; [18]
  level at 48 h: 93 ± 42.8 ng/mL
  level at 72 h: 632 ± 155 ng/mL
  level at 96 h: 684 ± 177 ng/mL
  level at 120 h: 738 ± 217 ng/mL
  level at 144 h: 754 ± 238 ng/mL
[8]; 51 critically ill patients with normal renal function (CLCr ≥ 80 mL/min), FDA-recommended dose 2.5–5 mg CBA/kg
  plasma Cavg,ss of colistin: 1.29 (0.45–5.28) μg/mL
[8]; 87 critically ill patients with CrCL >120 mL/min, loading dose 9 MIU then 4.5 MIU twice daily
  median Cavg,ss concentration: 1.6 (0.4–4.8) μg/mL
[8]; 214 patients with different renal functions
  median concentration (plasma Cavg,ss of colistin): 2.35 (0.24–9.92) μg/mL
[8]; [19]
  AUC0–12,ss: 9230 ± 1790 ng·h/mL
  Cavg,ss: 760 ± 151 ng/mL
[8]; healthy Japanese subjects, CMS 2.5 mg/kg CBA i.v. twice a day for 2.5 days
  AUC0–12,ss: 25700 ± 7490 ng·h/mL
[8]; patients with normal renal function at the recommended doses of EMA and FDA
  Patients achieving Cavg,ss at ≥1 μg/mL: 65–75%
[8]; simulated from single-dose PK parameters, 7 days of 2.5 mg/kg CBA q12 h of the new formulation
  Cavg,ss (95% CI): 0.92 (0.85, 0.99) μg/mL
[9]; after the first dose, CMS 2.5 mg/kg CBA i.v., day 1 urine stored without BSA, for reference only
  dose excreted: 0.41 ± 0.28%
[9]; urine, 2.5 mg/kg CBA, after the last dose (steady state), CMS 2.5 mg/kg CBA i.v. q12 h 7 days
  dose excreted: 1.22 ± 0.7%
